Each block holds one compound with its values, some of them ahead of it.
Target: T1, 53BP1 tandem Tudor domain (TTD) (Homo sapiens, UniProt Q12888)
T1 construct: DEL screens targeting the tandem Tudor domain (TTD) of 53BP1; made in house
Assay: 53BP1 TR-FRET displacement assay
Type: binding
Settings: mean ± SD of at least three replicates
Description: In this work, we test the hypothesis that initializing a structure-based generative AI workflow with validated DEL screening data can rapidly identify novel, potent, and more drug-like compounds from an ultra-large virtual library, outperforming traditional hit-picking strategies. To do so, we present a DEL-driven, integrated virtual screening workflow that combines the HIDDEN GEM platform with the multi-billion-compound Enamine REAL Space (Figure 1). Using data from our recently published DEL screens targeting the tandem Tudor domain (TTD) of 53BP1,[8],[16],[27] we biased our generative structure-guided ML model to identify novel, commercially available compounds from the Enamine REAL Space. All purchased and off-DNA synthesized compounds were experimentally tested using a developed time-resolved fluorescence resonance energy transfer (TR-FRET) displacement assay. This workflow provides a rapid, cost-effective strategy for academic labs and small biotech companies to accelerate hit discovery using focused DEL libraries and to expand beyond the screened chemical space, which is particularly important for smaller-sized DELs.
Reagents, protein expression/purification, DEL production and screening, and TR-FRET screening protocols were previously reported.[16],[27] […]
[Compound], µM [Compound], µM [Compound], µM
[Compound], µM [Compound], µM
Figure S2. 53BP1 TR-FRET displacement assay dose-response curves for compounds identified from
HIDDEN GEM. Each data point represents the mean of three replicates (n=3), with error bars indicating standard
deviation. Dose-response curves were fitted using a four-parameter Hill equation. […]

T1 sequence (Q12888 1484-1603 limits assumed): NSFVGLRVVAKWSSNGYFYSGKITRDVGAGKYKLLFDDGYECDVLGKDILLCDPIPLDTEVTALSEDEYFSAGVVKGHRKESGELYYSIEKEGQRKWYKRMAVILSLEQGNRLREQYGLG

SMILES: CN1CCC(Nc2ccccc2NC(=O)c2cccc(F)c2)CC1 [UNC10413800A]
IC50: 54 ± 8.5 µM

SMILES: COc1ccc(C(CNC2=NS(=O)(=O)c3ccccc32)N2CCCC2)cc1 (centres unmarked) [UNC10413807A]
IC50: 43 ± 0.44 µM

SMILES: Cc1ccc(C(CNC2=NS(=O)(=O)c3ccccc32)N2CCCC2)cc1 (centres unmarked) [UNC10414645A]
IC50: 34 ± 3 µM

The remaining compounds from weak to strong by IC50, led by results:

IC50: 58 ± 10 µM
SMILES: CCN1CCN(c2ccccc2NC(=O)c2cc(O)c3ccccc3c2)CC1 [UNC10414641A]

IC50: 22 ± 3.6 µM
SMILES: CN1CCN(c2ccccc2NC(=O)c2cc3ccccc3[nH]2)CC1 [UNC10413788A]

From paper doi:10.1101/2025.09.30.679600, “Expansion of DNA-Encoded Library Hits Using Generative Chemistry and Ultra-Large Compound Catalogs” (bioRxiv, 2025)
